From US8802597B2, “Herbicidal pyrimidines” (E I du Pont de Nemours and Company, priority 2003, dated 2014)
Where two headings read alike, the source gives them in different places.

Legend:
Test in all cases: Test C pre/postemergence
Format in all cases: in vivo
[1] = tested on: common (oilseed) sunflower (Helianthus annuus); details: Helianthus annuus, pre-emergence, Preemergence, scale 0 to 100, 0 no effect, 100 complete control, read-out: Plant response rating, Sunflower
How it was run: (§1)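 Test compounds, formulated in a non-phytotoxic solvent mix with surfactant, were applied to freshly planted seeds and, at the same time, to emerged plants at 1- to 4-leaf stage (2 to 18 cm). After 12 to 14 days in the greenhouse, response was scored visually versus controls, 0 = no effect, 100 = complete control.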

[2] = tested on: bermudagrass (Cynodon dactylon); details: Cynodon dactylon; for pest or weed control at 31 g/ha: 31 g ai/ha; for pest or weed control at 62 g/ha: 62 g ai/ha; for pest or weed control at 125 g/ha: 125 g ai/ha
How it was run: as §1

soybean (Glycine max) = details: Glycine max; for plant injury at 31 g/ha: 31 g ai/ha; for plant injury at 62 g/ha: 62 g ai/ha
How it was run: as §1

kochia (Kochia scoparia) = details: Bassia scoparia; for pest or weed control at 31 g/ha: 31 g ai/ha; for pest or weed control at 62 g/ha: 62 g ai/ha; for pest or weed control at 125 g/ha: 125 g ai/ha
How it was run: as §1

[3] = tested on: common ragweed (Ambrosia elatior); details: Ambrosia artemisiifolia; for pest or weed control at 31 g/ha: 31 g ai/ha; for pest or weed control at 62 g/ha: 62 g ai/ha
How it was run: as §1

[4] = tested on: cocklebur (Xanthium strumarium); details: Xanthium strumarium; for pest or weed control at 31 g/ha: 31 g ai/ha; for pest or weed control at 62 g/ha: 62 g ai/ha; for pest or weed control at 125 g/ha: 125 g ai/ha
How it was run: as §1

[5] = post-emergence, Postemergence, scale 0 to 100 (0 no effect, 100 complete control), read-out: Bermudagrass plant response rating
[6] = pre-emergence, Preemergence, scale 0 to 100, 0 no effect, 100 complete control, read-out: Plant response rating, Bermudagrass
[7] = post-emergence, Postemergence, read-out: Plant response rating (scale of 0 to 100), Soybean
[8] = pre-emergence, Preemergence, scale 0 to 100, 0 no effect, 100 complete control, read-out: Plant response rating, Soybean
[9] = post-emergence, Postemergence, read-out: Plant response rating (scale of 0 to 100), Kochia
[10] = pre-emergence, Preemergence, scale 0 to 100, 0 no effect, 100 complete control, read-out: Plant response rating, Kochia
[11] = post-emergence, Postemergence, read-out: Plant response rating (scale of 0 to 100), Ragweed
[12] = pre-emergence, Preemergence, scale 0 to 100, 0 no effect, 100 complete control, read-out: Plant response rating, Ragweed
[13] = post-emergence, Postemergence, read-out: Plant response rating (scale of 0 to 100), Cocklebur
[14] = pre-emergence, Preemergence, scale 0 to 100, 0 no effect, 100 complete control, read-out: Plant response rating, Cocklebur

Nc1nc(C2CC2)nc(C(=O)OCc2ccccc2)c1Cl [Compound 78, phenylmethyl 6-amino-5-chloro-2-cyclopropyl-4-pyrimidinecarboxylate] gave a pest or weed control at 16 g/ha ([1]; 16 g ai/ha) of 50%, a pest or weed control at 31 g/ha ([1]; 31 g ai/ha) of 70% and a pest or weed control at 62 g/ha ([1]; 62 g ai/ha) of 100%. For the same molecule, the pest or weed control at 31 g/ha ([2]; post-emergence, Postemergence, read-out: Plant response rating (scale of 0 to 100), Bermudagrass) was 60%, the pest or weed control at 62 g/ha [2, 5] was 60% and the pest or weed control at 125 g/ha [2, 5] was 60%. For the same molecule, the pest or weed control at 250 g/ha ([2]; post-emergence, Postemergence, 250 g ai/ha, scale 0 to 100, read-out: Plant response rating, Bermudagrass) was 65%, the pest or weed control at 16 g/ha ([2]; pre-emergence, Preemergence, 16 g ai/ha, scale 0 to 100, 0 no effect, 100 complete control, read-out: Plant response rating, Bermudagrass) was 0% and the pest or weed control at 31 g/ha [2, 6] was 0%. The pest or weed control at 62 g/ha [2, 6] was 0%, the pest or weed control at 125 g/ha ([2]; pre-emergence, Preemergence, scale 0 to 100, read-out: Plant response rating, Bermudagrass) was 20% and the plant injury at 31 g/ha (soybean (Glycine max); [7]) was 90%. It also gave a plant injury at 62 g/ha (soybean (Glycine max); [7]) of 100%, a plant injury at 125 g/ha (soybean (Glycine max); post-emergence, Postemergence, 125 g ai/ha, scale 0 to 100 (0 no effect, 100 complete control), read-out: Soybean plant response rating) of 100% and a plant injury at 250 g/ha (soybean (Glycine max); post-emergence, Postemergence, 250 g ai/ha, scale 0 to 100, read-out: Plant response rating, Soybean) of 100%. It also gave a plant injury at 16 g/ha (soybean (Glycine max); pre-emergence, Preemergence, 16 g ai/ha, scale 0 to 100, 0 no effect, 100 complete control, read-out: Plant response rating, Soybean) of 30%, a plant injury at 31 g/ha (soybean (Glycine max); [8]) of 70% and a plant injury at 62 g/ha (soybean (Glycine max); [8]) of 80%. For the same molecule, the pest or weed control at 31 g/ha (kochia (Kochia scoparia); [9]) was 90%, the pest or weed control at 62 g/ha (kochia (Kochia scoparia); [9]) was 90% and the pest or weed control at 125 g/ha (kochia (Kochia scoparia); post-emergence, Postemergence, scale 0 to 100 (0 no effect, 100 complete control), read-out: Kochia plant response rating) was 95%. For the same molecule, the pest or weed control at 250 g/ha (kochia (Kochia scoparia); post-emergence, Postemergence, 250 g ai/ha, scale 0 to 100, read-out: Plant response rating, Kochia) was 95%, the pest or weed control at 16 g/ha (kochia (Kochia scoparia); pre-emergence, Preemergence, 16 g ai/ha, scale 0 to 100, 0 no effect, 100 complete control, read-out: Plant response rating, Kochia) was 70% and the pest or weed control at 31 g/ha (kochia (Kochia scoparia); [10]) was 80%. It also gave a pest or weed control at 62 g/ha (kochia (Kochia scoparia); [10]) of 100%, a pest or weed control at 125 g/ha (kochia (Kochia scoparia); pre-emergence, Preemergence, scale 0 to 100, read-out: Plant response rating, Kochia) of 100% and a pest or weed control at 31 g/ha [3, 11] of 70%. It also gave a pest or weed control at 62 g/ha [3, 11] of 85%, a pest or weed control at 125 g/ha ([3]; post-emergence, Postemergence, 125 g ai/ha, scale 0 to 100 (0 no effect, 100 complete control), read-out: Ragweed plant response rating) of 95% and a pest or weed control at 250 g/ha ([3]; post-emergence, Postemergence, 250 g ai/ha, scale 0 to 100, read-out: Plant response rating, Ragweed) of 100%. It also gave a pest or weed control at 16 g/ha ([3]; pre-emergence, Preemergence, 16 g ai/ha, scale 0 to 100, 0 no effect, 100 complete control, read-out: Plant response rating, Ragweed) of 10%, a pest or weed control at 31 g/ha [3, 12] of 65% and a pest or weed control at 62 g/ha [3, 12] of 80%. The pest or weed control at 31 g/ha [4, 13] was 90%, the pest or weed control at 62 g/ha [4, 13] was 100% and the pest or weed control at 125 g/ha ([4]; post-emergence, Postemergence, scale 0 to 100 (0 no effect, 100 complete control), read-out: Cocklebur plant response rating) was 100%. The pest or weed control at 250 g/ha ([4]; post-emergence, Postemergence, 250 g ai/ha, scale 0 to 100, read-out: Plant response rating, Cocklebur) was 100%, the pest or weed control at 16 g/ha ([4]; pre-emergence, Preemergence, 16 g ai/ha, scale 0 to 100, 0 no effect, 100 complete control, read-out: Plant response rating, Cocklebur) was 55% and the pest or weed control at 31 g/ha [4, 14] was 70%. For the same molecule, the pest or weed control at 62 g/ha [4, 14] was 90% and the pest or weed control at 125 g/ha ([4]; pre-emergence, Preemergence, scale 0 to 100, read-out: Plant response rating, Cocklebur) was 90%.
